The record followed here is patent US11325938B2, “CD73 inhibitors” (ORIC Pharmaceuticals, Inc., priority 2018, dated 2022).

The IC50 is the concentration that inhibits the measured activity by half. Lower therefore signals greater potency.

In the experiment the target is CD73 (Homo sapiens (Human), UniProt P21589). Briefly: Biochemical assay: inhibition of CD73 activity (AMP hydrolysis, Malachite Green readout). The note with it: CD73 0.3208 nM, AMP 15 μM, 25 mM Tris-HCl pH 7.4, RT, absorbance 620 nm. A digest of the protocol: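 Human CD73 (320 pM final) preincubated 15 min at RT with compounds (10-point ½-log titration from 100 μM, duplicates) in 25 mM Tris-HCl pH 7.4, 5 mM MgCl2, 0.01% Brij-35, 0.01% BSA. 15 μM AMP added, 10 min at RT; released phosphate read by Malachite Green absorbance; IC50 determined.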
Sequence of CD73 (P21589 27-574): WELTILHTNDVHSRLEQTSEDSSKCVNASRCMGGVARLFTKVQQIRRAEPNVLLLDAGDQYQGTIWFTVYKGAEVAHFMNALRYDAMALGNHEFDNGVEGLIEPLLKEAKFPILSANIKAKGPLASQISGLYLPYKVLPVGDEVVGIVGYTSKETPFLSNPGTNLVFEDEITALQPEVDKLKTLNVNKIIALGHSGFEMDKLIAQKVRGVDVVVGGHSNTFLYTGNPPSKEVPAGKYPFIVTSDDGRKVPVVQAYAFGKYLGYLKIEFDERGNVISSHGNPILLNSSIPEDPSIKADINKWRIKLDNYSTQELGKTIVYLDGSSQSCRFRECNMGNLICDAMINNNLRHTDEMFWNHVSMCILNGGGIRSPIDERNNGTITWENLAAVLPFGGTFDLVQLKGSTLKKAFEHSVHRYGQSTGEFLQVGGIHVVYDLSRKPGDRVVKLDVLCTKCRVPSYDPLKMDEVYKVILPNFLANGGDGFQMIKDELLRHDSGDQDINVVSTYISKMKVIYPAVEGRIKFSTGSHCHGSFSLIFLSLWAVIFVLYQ
Regarding `COC[C@@](C)(OC[C@H]1O[C@@H](n2ncc3c(NC4CCCC4)nc(Cl)nc32)[C@H](O)[C@@H]1O)P(=O)(O)O` [Example 65, ((S)-2-(((2R,3S,4R,5R)-5-(6-chloro-4-(cyclopentylamino)-1H-pyrazolo[3,4-d]pyrimidin-1-yl)-3,4-dihydroxytetrahydrofuran-2-yl)methoxy)-1-methoxypropan-2-yl)phosphonic acid], the IC50 is not above 100 nM.

The compound `CC(CO)(OC[C@H]1O[C@@H](n2nnc3c(NC4CCCC4)cc(Cl)nc32)[C@H](O)[C@@H]1O)P(=O)(O)O` (stereo partly drawn) [Example 66, (2-(((2R,3S,4R,5R)-5-(5-chloro-7-(cyclopentylamino)-3H-[1,2,3]triazolo[4,5-b]pyridin-3-yl)-3,4-dihydroxytetrahydrofuran-2-yl)methoxy)-1-hydroxypropan-2-yl)phosphonic acid] had an IC50 not above 100 nM.

The compound `CC(CO)(OC[C@H]1O[C@@H](n2nnc3c(NC4CCCC4)nc(Cl)nc32)[C@H](O)[C@@H]1O)P(=O)(O)O` (stereo partly drawn) [Example 67, (2-(((2R,3S,4R,5R)-5-(5-chloro-7-(cyclopentylamino)-3H-[1,2,3]triazolo[4,5-d]pyrimin-3-yl)-3,4-dihydroxytetrahydrofuran-2-yl)methoxy)-1-hydroxypropan-2-yl)phosphonic acid] had an IC50 not above 100 nM.

Compound `CC(CO)(OC[C@H]1O[C@@H](n2ncc3c(NC4CCCC4)nc(OCCO)nc32)[C@H](O)[C@@H]1O)P(=O)(O)O` (stereo partly drawn) [Example 68, (2-(((2R,3S,4R,5R)-5-(4-(cyclopentylamino)-6-(2-hydroxyethoxy)-1H-pyrazolo[3,4-d]pyrimidin-1-yl)-3,4-dihydroxytetrahydrofuran-2-yl)methoxy)-1-hydroxypropan-2-yl)phosphonic acid] displayed an IC50 not above 100 nM.

Compound `COC[C@](C)(OC[C@H]1O[C@@H](n2ncc3c(NC4CCCC4)nc(Cl)nc32)[C@H](O)[C@@H]1O)P(=O)(O)O` [Example 69, ((R)-2-(((2R,3S,4R,5R)-5-(6-chloro-4-(cyclopentylamino)-1H-pyrazolo[3,4-d]pyrimidin-1-yl)-3,4-dihydroxytetrahydrofuran-2-yl)methoxy)-1-methoxypropan-2-yl)phosphonic acid] had a 50% inhibitory concentration (IC50) not above 100 nM.

On to `COCC(C)(OC[C@@H]1C[C@@H](O)[C@H](n2ncc3c(NC4CCCC4)nc(Cl)nc32)O1)P(=O)(O)O` (stereo partly drawn) [Example 70, (2-(((2S,4R,5R)-5-(6-chloro-4-(cyclopentylamino)-1H-pyrazolo[3,4-d]pyrimidin-1-yl)-4-hydroxytetrahydrofuran-2-yl)methoxy)-1-methoxypropan-2-yl)phosphonic acid], for which the IC50 is 100 to 1000 nM.

The compound `CC(CN1CCOCC1)(OC[C@H]1O[C@@H](n2ncc3c(NC4CCCC4)nc(Cl)nc32)[C@H](O)[C@@H]1O)P(=O)(O)O` (stereo partly drawn) [Example 71, (2-(((2R,3S,4R,5R)-5-(6-chloro-4-(cyclopentylamino)-1H-pyrazolo[3,4-d]pyrimidin-1-yl)-3,4-dihydroxytetrahydrofuran-2-yl)methoxy)-1-morpholinopropan-2-yl)phosphonic acid] registered an IC50 of more than 1000 nM.

Turning to `C[C@](CS(C)(=O)=O)(OC[C@H]1O[C@@H](n2ncc3c(NC4CCCC4)nc(Cl)nc32)[C@H](O)[C@@H]1O)P(=O)(O)O` [Example 73, ((S)-2-(((2R,3S,4R,5R)-5-(6-chloro-4-(cyclopentylamino)-1H-pyrazolo[3,4-d]pyrimidin-1-yl)-3,4-dihydroxytetrahydrofuran-2-yl)methoxy)-1-(methyslulfonyl)propan-2-yl)phosphonic acid], the IC50 was not above 100 nM.

For the compound `C[C@@](CS(C)(=O)=O)(OC[C@H]1O[C@@H](n2ncc3c(NC4CCCC4)nc(Cl)nc32)[C@H](O)[C@@H]1O)P(=O)(O)O` [Example 74, ((R)-2-(((2R,3S,4R,5R)-5-(6-chloro-4-(cyclopentylamino)-1H-pyrazolo[3,4-d]pyrimidin-1-yl)-3,4-dihydroxytetrahydrofuran-2-yl)methoxy)-1-(methylsulfonyl)propan-2-yl)phosphonic acid], the half-maximal inhibitory concentration (IC50) was not above 100 nM.
